The text below walks through data of article PMC10831786 (Virus Research, 2024).

Each structure is given as a SMILES string. “And” between values parts separate entries of the source, which are not always exact repeats. Identical values can stand only once. Counter-ions that a name gives are not always drawn. Like-named read-outs stand apart in the source and are kept apart here. Bounds are passed on as bounds.

Data set [1] deals with protein synthesis in BEC-hACE2 cells. In words: Puromycin pulse labeling, protein synthesis in cultured BEC-hACE2 cells. Conditions: for inhibition at 1 µM: BEC-hACE2, 1 μM. The class given is cell-based, human.
Data set [2] relates to BEC-hACE2 cells. Briefly: Sulforhodamine B (SRB) assay in non-infected BEC-hACE2 cells. The class given is cell-based, human. Particulars: for SRB, TGI / GI50: BEC-hACE2, 24 h; for GI50: read-out: SRB, GI50. The protocol:
(§1) Detailed methods are provided in Supplementary Information.
This method has been used by the National Cancer Institute to evaluate drug candidates for their activities as growth inhibitors and toxins in human cancer cell lines. NCI’s protocols for SRB assay were strictly followed^81, 82. On the day of exposure (Day 0), several wells of untreated cells were fixed by addition of trichloroacetic acid (TCA, 10% V/V) and incubated for one hour at 4°C. The supernatant was discarded, wells washed five times with tap water and then air-dried. Samples were stored at room temperature until cells exposed to ipecac alkaloids or DMSO for 24 h were fixed in a similar manner. For color development, 500 µl of 0.4% SRB reagent prepared in 1% acetic acid was added to fixed cells and samples were incubated at room temperature for 15 min with gentle rocking. Unbound dye was removed by five washes with 1% acetic acid and plates were air-dried. Trizma base (10 mM) was used to dissolve the stain and absorbance was measured at 515 nm using a spectrophotometer. By comparing absorption values obtained at day 0 to the signal at day 1, with and without drugs, this protocol permits distinguishing growth inhibition from toxicity of the test compounds.
For orientation: The SRB assay estimates cell density from bound dye.

The target in data set [3] is sodium channel. Also noted: method as in Lemmens-Gruber et al., 1997. Conditions: ref Lemmens-Gruber et al., 1997; read-out: Kd, sodium channel reduction; cited from earlier work.
Data set [4] has as its target T1, l-type calcium current ICaL (Homo sapiens, UniProt Q13936).
T1 construct: host or cells: human iPSC-derived ventricular cardiomyocytes
In words: Patch clamp recording of ICaL in human iPSC-derived cardiomyocytes. The class given is cell-based. Here is the method:
iPSC cells (Axol Bioscience Ltd, FL, USA) were plated at a density of 25,000 cells/cm^2 on coverslips coated with 1x Axol Fibronectin Coating Solution in Axol Plating Medium (Axol Cardiomyocyte Maintenance Medium, 10 % fetal bovine serum and 10 μM Y-27,632 2HCl) according to manufacturer's instructions. The next day the medium was changed to Axol Cardiomyocyte Maintenance Medium. Cells were maintained at 5 % CO2, 37 °C in humidified conditions. Medium was replaced every other day.
An Axopatch −1D (Axon Instruments: Molecular Devices LLC, CA, USA) amplifier and […] were used for recording and data analysis. Patch electrode resistance was set at 4–6 MΩ and room temperature was 22 ± 1 °C. During the recording, cells were held at −50 mV, then, the voltage was gradually raised to +60 mV in 10 mV increments with 300 ms pulse. The bath solution included the following components: 137 mM TEA-Cl, 1 mM MgCl2, 2 mM CaCl2, 10 mM HEPES, 10 mM glucose (pH 7.4, adjusted with TEA-OH). For the pipette the solution contained: 111 mM CsCl, 20 mM TEA-Cl, 10 mM glucose, 10 mM HEPES, 14 mM EGTA, 5 mM MgATP (pH 7.2, adjusted with CsOH).
D represents the concentrations of a given drug.

Data set [5] addresses T2, l-type calcium current ICaL (Cavia porcellus, UniProt O35505).
T2 construct: from tissue; host or cells: freshly dissociated guinea pig ventricular myocytes
In words: Patch clamp recording of ICaL in guinea pig ventricular myocytes. The class given is cell-based. Conditions: for IC50: GP cardiomyocytes, read-out: IC50, calcium channel (ICaL) blocking activity; for Kd: guinea pig ventricular myocytes, Langmuir isotherm, 5-60 μM, read-out: KD for inhibition of ICaL.

The nature of data set [6]: MTS assay, growth inhibition and toxicity in non-infected BEC-hACE2 cells. The class given is cell-based, human. Particulars: human, sub-confluent non-infected BEC-hACE2 cells; sub-confluent BEC-hACE2, 24 h; read-out: MTS, CC50 (50 % effect). Here is the method: as §1
(§2) Vero E6 and BEC-hACE2 cells were grown to 70-80% density in their maintenance media and exposed to various concentrations of ipecac alkaloids (0.0125 – 200 µM) under standard culture conditions for 48-72 h and 24 h, respectively. Controls with varying amounts of DMSO and no DMSO were included also. Vero E6 cells were incubated with drugs in 2% FBS-EMEM, while BEC-HACE2 cells were grown and treated in complete PCS-300-03 medium with supplements. Similar treatments were also conducted using fully confluent non-growing BEC-hACE2 cells. At the end of the exposure period, MTS reagent (Promega G3580) was added at 1/5th of the medium volume and color was allowed to develop by incubation of the plates for an hour in a cell culture incubator. To stop reactions, SDS was added to a final concentration of 2% and optical density of samples was measured at 450 or 490 nm, depending on the model of spectrophotometer (PharmaciaBiotech, NJ, USA; UV spectrophotometer, model Ultrospec2000) or plate reader (Molecular Devices, CA, USA; model Filter Max F5 Multi-mode microplate reader) available at the time of experiment.

Data set [7] in a line: MTS assay, growth inhibition and toxicity in non-infected Vero E6 cells. The class given is cell-based, African green monkey. Particulars: African green monkey, non-infected Vero E6 cells, MTS, 72 h; read-out: Fifty percent effect (CC50) in non-infected Vero E6. Here is the method: as §1, §2
The test system of data set [8] is HCoV-OC43. Briefly: Antiviral activity against HCoV-OC43 in Vero E6 cells (RT-qPCR of N-gene). The class given is cell-based. The protocol:
Vero E6 cells (∼5 × 10^4 cells/cm^2 in 24-well plates) were infected with […] at MOI of 20 genomes per cell in 2 % FBS-EMEM at 33 °C, 5 % CO2 with gently mixing for 2 h. Infection medium was removed, cells were washed with fresh medium followed by the addition of compounds at indicated concentrations in 2 % FBS-EMEM. After 72 h, 100 µL of medium was collected and stored at −80 °C for viral RNA isolation and RT-qPCR analysis as detailed below. Drugs were added to the medium prior to and after viral absorption for comparison.
HCoV-OC43 RNA was isolated from 100 µL of medium using Quick-RNA Viral Kit-DX (Zymo Research, CA, USA; R1035). The relative amount of viral genomic RNA was determined with Luna Universal One-Step RT-qPCR Kit (New England Biolabs, MA, USA; E3005). […]
RT-qPCR cycles were set for 20 min at 55 °C, 1 min at 95 °C followed by 45 cycles of 95 °C for 10 s, 48 °C for 30 s and 60 °C for 1 min. The threshold cycle (Ct) for each sample was determined using the Opticon Monitor 3 Program (BioRad). Drug effects on viral propagation were evaluated assuming that a difference of one cycle corresponds to a two-fold difference in the number of copies of viral RNA. Ct values obtained for drug-free samples were considered as 100 % viral propagation.
(Quantitative PCR measures a nucleic acid by following its amplification.)

Data set [9] concerns Entamoeba histolytica. In words: Growth inhibition of Entamoeba histolytica in vitro (literature). Particulars: anti-coronavirus IC50 versus amebae. The class given is cell-based.
Setting [10] is: Homo sapiens, read-out: Protein synthesis inhibition,%.
[11] abbreviates: Betacoronavirus 1, OC43, Vero C1008, 72 h, Vero E6, 72 h, read-out: Antiviral IC50.
[12] abbreviates: Betacoronavirus 1, OC43, Vero C1008, Vero E6, drug added after viral absorption, 72 hpi, read-out: Antiviral IC50.

T2 sequence (O35505 whole entry): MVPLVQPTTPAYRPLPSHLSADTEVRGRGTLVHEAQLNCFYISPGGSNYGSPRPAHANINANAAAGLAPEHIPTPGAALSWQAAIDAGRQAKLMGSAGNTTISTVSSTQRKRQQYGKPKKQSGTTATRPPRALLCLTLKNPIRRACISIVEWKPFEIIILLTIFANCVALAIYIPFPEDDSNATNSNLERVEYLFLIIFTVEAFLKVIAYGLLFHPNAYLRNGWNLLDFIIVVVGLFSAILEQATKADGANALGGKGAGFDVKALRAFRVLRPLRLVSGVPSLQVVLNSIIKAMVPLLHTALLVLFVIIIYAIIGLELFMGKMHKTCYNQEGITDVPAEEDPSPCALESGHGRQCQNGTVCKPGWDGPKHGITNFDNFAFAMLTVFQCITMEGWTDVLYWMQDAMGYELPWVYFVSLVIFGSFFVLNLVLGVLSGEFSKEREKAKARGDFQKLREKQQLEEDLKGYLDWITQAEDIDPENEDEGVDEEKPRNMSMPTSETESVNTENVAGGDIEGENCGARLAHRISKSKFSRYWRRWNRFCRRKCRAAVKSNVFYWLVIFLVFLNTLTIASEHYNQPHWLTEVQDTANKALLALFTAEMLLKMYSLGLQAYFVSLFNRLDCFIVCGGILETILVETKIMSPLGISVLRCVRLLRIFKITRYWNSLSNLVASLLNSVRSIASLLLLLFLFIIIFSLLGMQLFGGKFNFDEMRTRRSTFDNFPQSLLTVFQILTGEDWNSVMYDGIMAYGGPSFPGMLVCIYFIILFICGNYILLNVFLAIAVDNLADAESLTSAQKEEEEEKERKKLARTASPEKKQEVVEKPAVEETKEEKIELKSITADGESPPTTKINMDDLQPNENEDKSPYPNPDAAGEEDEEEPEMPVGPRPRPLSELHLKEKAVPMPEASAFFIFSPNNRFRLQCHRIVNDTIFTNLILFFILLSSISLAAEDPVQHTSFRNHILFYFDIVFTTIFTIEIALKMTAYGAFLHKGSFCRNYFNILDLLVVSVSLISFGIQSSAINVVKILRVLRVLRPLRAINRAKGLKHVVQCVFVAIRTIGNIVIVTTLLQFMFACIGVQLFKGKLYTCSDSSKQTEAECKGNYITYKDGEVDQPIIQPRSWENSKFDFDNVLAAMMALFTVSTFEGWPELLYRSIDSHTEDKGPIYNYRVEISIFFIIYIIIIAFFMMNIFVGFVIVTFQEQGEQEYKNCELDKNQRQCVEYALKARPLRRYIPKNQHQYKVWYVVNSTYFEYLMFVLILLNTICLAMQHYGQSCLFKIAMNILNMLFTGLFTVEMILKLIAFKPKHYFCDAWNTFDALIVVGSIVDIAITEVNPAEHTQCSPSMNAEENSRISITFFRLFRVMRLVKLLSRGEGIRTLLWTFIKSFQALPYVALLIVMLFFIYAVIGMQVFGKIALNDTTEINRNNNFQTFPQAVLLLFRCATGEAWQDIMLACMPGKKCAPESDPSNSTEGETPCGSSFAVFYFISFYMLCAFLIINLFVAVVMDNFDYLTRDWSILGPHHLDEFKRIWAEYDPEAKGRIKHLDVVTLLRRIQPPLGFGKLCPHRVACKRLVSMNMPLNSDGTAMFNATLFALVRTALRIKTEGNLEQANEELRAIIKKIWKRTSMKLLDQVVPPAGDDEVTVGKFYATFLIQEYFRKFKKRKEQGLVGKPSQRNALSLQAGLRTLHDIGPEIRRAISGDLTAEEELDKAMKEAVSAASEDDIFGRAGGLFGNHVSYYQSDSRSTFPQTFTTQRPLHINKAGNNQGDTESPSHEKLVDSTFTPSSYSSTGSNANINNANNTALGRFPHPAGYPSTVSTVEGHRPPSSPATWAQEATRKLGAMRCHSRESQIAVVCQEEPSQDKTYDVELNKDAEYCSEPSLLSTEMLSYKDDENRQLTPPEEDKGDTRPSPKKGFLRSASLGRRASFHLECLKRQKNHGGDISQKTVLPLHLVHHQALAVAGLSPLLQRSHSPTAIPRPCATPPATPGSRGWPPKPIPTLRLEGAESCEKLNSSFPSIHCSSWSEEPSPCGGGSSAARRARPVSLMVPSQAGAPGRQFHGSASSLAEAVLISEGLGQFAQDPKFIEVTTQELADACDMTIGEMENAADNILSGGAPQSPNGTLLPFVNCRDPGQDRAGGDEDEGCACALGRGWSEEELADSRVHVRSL

Consider `CC[C@H]1CN2CCc3cc(OC)c(OC)cc3[C@@H]2C[C@@H]1C[C@H]1NCCc2cc(OC)c(OC)cc21` [Emetine, 2H-Benzoaquinolizine, 3-ethyl-1,3,4,6,7,11b-hexahydro-9,10-dimethoxy-2-(1R)-1,2,3,4-tetrahydro-6,7-dimethoxy-1-isoquinolinylmethyl-, dihydrochloride, (2S,3R,11bS)-, reference compound], for which the IC50 in data set [1] (Homo sapiens, read-out: IC50, protein synthesis) is around 200 nM; in data set [1] (Homo sapiens, BEC-hACE2, read-out: IC50, protein synthesis inhibition), around 120 nM; in [5], ~57000 nM and 40000 to 60000 nM; in [8] (setting [11]), 40 to 60 nM; in data set [8] (Betacoronavirus 1, OC43, Vero C1008, Vero E6, drug 1 h before viral absorption and 72 h after infection (1 hbi/72 hpi), read-out: Antiviral IC50) it was 44 ± 2 nM; in data set [8] (setting [12]), 40 ± 2 nM. The inhibition (in general, the drop in the measured response relative to a control, in per cent) at 0.05 µM in data set [1] (setting [10]) came out at 7%. The inhibition at 0.1 µM in [1] (setting [10]) was determined as 30%. The inhibition at 0.3 µM in data set [1] (setting [10]) was determined as 80%. Moreover, the inhibition at 1000 µM in data set [1] (setting [10]) turned out to be 97%. For the same compound, the inhibition at 0.5 µM in data set [1] (Homo sapiens, 0.5 μM, read-out: Inhibition of translation activity in host cells) was at least 90%. This compound gave an inhibition at 1 µM in data set [1] (Homo sapiens) of 97%. In data set [1] (Homo sapiens, BEC-hACE2, 10 μM), this compound yielded an inhibition at 10 µM of 100%. In addition, the “SRB, TGI” value was 250 to 500 nM in data set [2] and “∼ 0.25–0.5 μM” in data set [2] (listed as EMT). For the same compound, the GI50 (as a rule, the concentration that inhibits growth by half) in [2] (Homo sapiens, 24 h) was 110 nM; in data set [2] (listed as EMT) it was 112 ± 22 nM. The figures for the Kd in data set [3] and in data set [5] were 15000 nM and 57000 nM, respectively. Also, the “Estimated reduction in ICaL” value in data set [4] (human cardiomyocytes, assuming 25 µM) is on record as “approximately one-third”; in [5] (GP ventricular myocytes, assuming 25 µM), “over thirty-three percent”. For the same compound, the “Impact on ICaL” value in data set [5] (0.5 μM) is 1%. Also, the inhibition at 5 µM in [5] (5 μM) was around 10%. For the same compound, in [6], the CC50 (commonly the concentration giving 50% cytotoxicity) at 24 h is 100000 nM. For the same compound, in data set [7], the CC50 at 72 h came out at 1520 nM.

On to `CC[C@H]1CN2CCc3cc(OC)c(OC)cc3[C@@H]2C[C@@H]1C[C@@H]1NCCc2cc(OC)c(OC)cc21.Cl.Cl` [Isoemetine, 2H-Benzoaquinolizine, 3-ethyl-1,3,4,6,7,11b-hexahydro-9,10-dimethoxy-2-(1S)-1,2,3,4-tetrahydro-6,7-dimethoxy-1-isoquinolinylmethyl-, dihydrochloride, (2S,3R,11bS)-], for which the “Protein synthesis inhibition,%” value in data set [1] (BEC-hACE2, 10 μM, 10 µM) was found to be 20%; in data set [1] (BEC-hACE2, 10 μM, listed as ISOEMT, 10 µM) it was 18%; in data set [1] (BEC-hACE2, 30 μM, 30 µM) it was 50%; in data set [1] (BEC-hACE2, 30 μM, listed as ISOEMT, 30 µM) it was 47%. In addition, the “SRB, TGI” value in data set [2] was around 200000 nM. Besides, the 50% growth inhibitory concentration (GI50) in data set [2] was determined as 19400 ± 3860 nM. In addition, the “SRB, nature of the effect” value in data set [2] (BEC-hACE2, at ∼200 μM) was “toxic”. Besides, the Kd (commonly the concentration at which binding is half-saturated) in data set [5] came to 42000 nM. For the same compound, the IC50 in [8] (Vero E6, drug added after viral absorption, 72 hpi, read-out: Antiviral IC50) was 1050 ± 213 nM.

In data set [1] (Homo sapiens), `CCC1=C(C[C@H]2NCCc3cc(OC)c(OC)cc32)C[C@H]2c3cc(OC)c(OC)cc3CCN2C1` [DHE4, 4H-Benzo[a]quinolizine, 3-ethyl-1,6,7,11b-tetrahydro-9,10-dimethoxy-2-[[(1R)-1,2,3,4-tetrahydro-6,7-dimethoxy-1-isoquinolinyl]methyl]-, (11bS)-] showed an inhibition at 1 µM of 97%. The GI50 in data set [2] was determined as 62 ± 17 nM; in data set [2] (Homo sapiens, 24 h), 60 nM. The “Fold, antiviral concentrations lower than those required to kill amebae” value in data set [9] was 125–250 fold. Further, the Kd in data set [4] was found to be 60000 nM; in data set [5], 54000 nM. The “Peak current density, ICaL” value in data set [4] (human IPSC-derived cardiomyocytes, DHE4 30 uM (control 13.5)) is 8.9. In data set [4] (human IPSC-derived cardiomyocytes, after washout of DHE4 30 uM (control 13.5)), the “Peak current density, ICaL, washout” value was 9.8. Besides, the IC50 is 40000 to 60000 nM in data set [5]; 40 to 60 nM in [8] (setting [11]); 63 ± 4 nM in data set [8] (setting [12]); 66 ± 6 nM in [8] (Betacoronavirus 1, OC43, Vero C1008, read-out: Antiviral IC50, Vero E6, drug 1 h before viral absorption and 72 h after infection (1 hbi/72 hpi)). Further, in data set [8] (HCoV-OC43, Vero E6, 72 hpi), the “Selectivity index, (SI) CC50/IC50” value came out at 52.
